Earlier results as cited in patent US20240148714A1, “Triple Negative Breast Cancer Treatment Method” (Exelixis, Inc., priority 2016, published 2024).

Tested on: mTNBC
Conditions: bevacizumab and onartuzumab combined, with paclitaxel; mTNBC patients without previous paclitaxel for metastatic disease; cited from earlier work

| Substance | clinical benefit |
| --- | --- |
| bevacizumab | no clinical benefit |
| onartuzumab | no clinical benefit |
